Data published in patent US7776848B2, “Spirocyclic cyclohexane compounds” (Gruenenthal GmbH, priority 2004, dated 2010).
Counter-ions that a name gives are not always drawn.

Columns and labels:
[1] = target: T1, 5HT uptake (serotonin reuptake), synaptosomes from hypothalamus of male rat brains (Rattus norvegicus, UniProt P31652); assay: Serotonin reuptake inhibition (5HT uptake inhibition) in rat brain synaptosomes; type: biochemical
T1 construct: synaptosomes are freshly isolated from areas of rat brain; from tissue; host or cells: synaptosomes (P2 fraction) from hypothalamus of male rat brains
T1 sequence (P31652 whole entry): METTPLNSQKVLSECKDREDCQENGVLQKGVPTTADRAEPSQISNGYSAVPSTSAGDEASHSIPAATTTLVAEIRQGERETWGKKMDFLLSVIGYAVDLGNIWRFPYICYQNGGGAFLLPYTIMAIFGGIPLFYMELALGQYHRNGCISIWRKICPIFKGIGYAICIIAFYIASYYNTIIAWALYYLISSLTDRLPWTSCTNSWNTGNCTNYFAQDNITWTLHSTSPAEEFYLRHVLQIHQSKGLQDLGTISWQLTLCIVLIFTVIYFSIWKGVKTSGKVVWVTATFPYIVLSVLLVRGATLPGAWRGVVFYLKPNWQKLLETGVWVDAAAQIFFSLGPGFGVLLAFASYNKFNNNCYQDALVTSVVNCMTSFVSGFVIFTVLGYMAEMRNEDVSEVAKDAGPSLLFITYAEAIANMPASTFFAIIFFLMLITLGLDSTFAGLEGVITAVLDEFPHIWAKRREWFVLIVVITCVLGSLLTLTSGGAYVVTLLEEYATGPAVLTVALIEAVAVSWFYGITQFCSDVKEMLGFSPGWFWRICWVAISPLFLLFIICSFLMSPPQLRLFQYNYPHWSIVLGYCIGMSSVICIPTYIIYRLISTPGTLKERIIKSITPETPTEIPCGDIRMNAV
Description: Biological Testing a) Studies of Serotonin Reuptake Inhibition (5HT Uptake Inhibition)
In order to be able to carry out these in vitro studies, synaptosomes are freshly isolated from areas of rat brain. A so-called “P2” fraction is used in each case, which is prepared according to the procedure of Gray and Whittaker (E. G. Gray and V. P. Whittaker (1962) J. Anat. 76, 79-88). For 5HT uptake, these vesicular particles are isolated from the hypothalamus of male rat brains. A detailed description of the method can be found in the literature (M. Ch. Frink, H.-H. Hennies, W. Englberger, M. Haurand and B. Wilffert (1996) Arzneim.-Forsch./Drug Res. 46 (III), 11, 1029-1036).

[2] = target: T2, NA uptake (noradrenaline reuptake), synaptosomes from hypothalamus of male rat brains (Rattus norvegicus, UniProt Q63380); assay: Noradrenaline reuptake inhibition (NA uptake inhibition) in rat brain synaptosomes; type: biochemical
T2 construct: synaptosomes are freshly isolated from areas of rat brain; from tissue; host or cells: synaptosomes (P2 fraction) from hypothalamus of male rat brains
T2 sequence (Q63380 1-617): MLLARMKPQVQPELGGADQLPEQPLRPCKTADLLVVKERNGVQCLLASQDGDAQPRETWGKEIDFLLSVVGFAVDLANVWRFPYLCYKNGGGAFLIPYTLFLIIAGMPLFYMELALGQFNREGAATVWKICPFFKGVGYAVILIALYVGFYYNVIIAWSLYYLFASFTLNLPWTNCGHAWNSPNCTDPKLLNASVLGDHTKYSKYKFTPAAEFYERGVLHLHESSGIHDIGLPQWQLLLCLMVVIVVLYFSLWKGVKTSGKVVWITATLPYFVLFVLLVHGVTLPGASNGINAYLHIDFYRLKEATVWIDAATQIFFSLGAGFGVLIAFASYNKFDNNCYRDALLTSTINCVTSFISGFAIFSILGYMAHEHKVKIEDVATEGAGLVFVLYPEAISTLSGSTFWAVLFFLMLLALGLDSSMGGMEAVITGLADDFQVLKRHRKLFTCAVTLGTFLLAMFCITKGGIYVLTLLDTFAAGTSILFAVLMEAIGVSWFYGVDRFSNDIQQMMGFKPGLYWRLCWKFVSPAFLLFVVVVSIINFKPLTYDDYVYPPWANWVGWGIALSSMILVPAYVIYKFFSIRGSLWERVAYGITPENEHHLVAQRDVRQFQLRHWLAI
Description: b) Studies of Noradrenaline Reuptake Inhibition (NA Uptake Inhibition)
In order to be able to carry out these in vitro studies, synaptosomes are freshly isolated from areas of rat brain. A so-called “P2” fraction is used in each case, which is prepared according to the procedure of Gray and Whittaker (E. G. Gray and V. P. Whittaker (1962) J. Anat. 76, 79-88). For NA uptake, these vesicular particles are isolated from the hypothalamus of male rat brains. A detailed description of the method can be found in the literature (M. Ch. Frink, H.-H. Hennies, W. Englberger, M. Haurand and B. Wilffert (1996) Arzneim.-Forsch./Drug Res. 46 (III), 11, 1029-1036).

| SMILES | inhibition at 10 µM [1] [%] | inhibition at 10 µM [2] [%] |
| --- | --- | --- |
| CN(C)CC1CC2(CCC1(O)c1cccc(F)c1)NCCc1c2[nH]c2ccccc12 (stereo not shown) [Example 3, 1,1-(2-(Dimethylaminomethyl)-3-hydroxy-3-(3-fluorophenyl)-pentamethylene)-3,4-dihydro-1H-2,9-diazafluorene citrate] | 75 | 48 |
| Cc1ccccc1C1(O)CCC2(CC1CN(C)C)NCCc1c2[nH]c2ccccc12 (stereo not shown) [Example 6, 1,1-(2-(Dimethylaminomethyl)-3-hydroxy-3-(2-methylphenyl)-pentamethylene)-3,4-dihydro-1H-2,9-diazafluorene citrate] | 69 |  |
| CN(C)CC1CC2(CCC1(O)c1ccccc1)OCCc1c2sc2ccccc12 (stereo not shown) [Example 7, 1,1-(2-(Dimethylaminomethyl)-3-hydroxy-3-phenyl-pentamethylene)-1,3,4,9-tetrahydro-pyrano[3,4-b]benzothiophene citrate] | 88 | 59 |
| CN(C)CC1CC2(CCC1(O)c1ccccc1)SCCc1c2[nH]c2ccccc12 (stereo not shown) [Example 9, 1,1-(2-(Dimethylaminomethyl)-3-hydroxy-3-phenyl-pentamethylene)-1,3,4,9-tetrahydro-2-thia-9-aza-fluorene citrate] | 81 |  |
| CN(C)CC1CC2(CCC1(O)c1cccc(F)c1)OCCc1c2sc2ccccc12 (stereo not shown) [Example 10, 1,1-(2-(Dimethylaminomethyl)-3-hydroxy-3-(3-fluorophenyl)-pentamethylene)-1,3,4,9-tetrahydro-pyrano[3,4-b]benzothiophene citrate] | 88 | 55 |
| Cc1ccccc1C1(O)CCC2(CC1CN(C)C)OCCc1c2sc2ccccc12 (stereo not shown) [Example 11, 1,1-(2-(Dimethylaminomethyl)-3-hydroxy-3-(2-methylphenyl)-pentamethylene)-1,3,4,9-tetrahydro-pyrano[3,4-b]benzothiophene citrate] | 85 | 43 |
| CN(C)CC1CC2(CCC1(O)c1ccc(C(F)(F)F)cc1)OCCc1c2oc2ccccc12 (stereo not shown) [Example 13, 1,1-(2-(Dimethylaminomethyl)-3-hydroxy-3-(4-trifluoromethylphenyl)-pentamethylene)-1,3,4,9-tetrahydro-pyrano[3,4-b]benzofuran citrate] | 60 | 46 |
| CN(C)CC1CC2(CCC1(O)c1cccc(F)c1)SCCc1c2[nH]c2ccccc12 (stereo not shown) [Example 14, 1,1-(2-(Dimethylaminomethyl)-3-hydroxy-3-(3-fluorophenyl)-pentamethylene)-1,3,4,9-tetrahydro-2-thia-9-aza-fluorene citrate] | 61 | 46 |
| CN(C)CC1CC2(CCC1(O)c1ccc(C(F)(F)F)cc1)NCCc1c2[nH]c2ccccc12 (stereo not shown) [Example 15, 1,1-(2-(Dimethylaminomethyl)-3-hydroxy-3-(4-trifluoromethylphenyl)-pentamethylene)-3,4-dihydro-1H-2,9-diazafluorene dicitrate] | 83 | 76 |
| CN(C)CC1CC2(CCC1(O)c1cccc(F)c1)NCCc1c2[nH]c2cc(F)ccc12 (stereo not shown) [Example 16, 1,1-(2-(Dimethylaminomethyl)-3-hydroxy-3-(3-fluorophenyl)-pentamethylene)-7-fluoro-3,4-dihydro-1H-2,9-diazafluorene sesquicitrate] | 72 |  |
| COc1ccc2[nH]c3c(c2c1)CCNC31CCC(O)(c2ccccc2)C(CN(C)C)C1 (stereo not shown) [Example 17, 1,1-(2-(Dimethylaminomethyl)-3-hydroxy-3-phenyl-pentamethylene)-3,4-dihydro-6-methoxy-1H-2,9-diazafluorene citrate] | 57 |  |
| COc1ccc2[nH]c3c(c2c1)CCOC31CCC(O)(c2ccc(SC)cc2)C(CN(C)C)C1 (stereo not shown) [Example 18, 1,1-(2-(Dimethylaminomethyl)-3-hydroxy-3-(4-methylthiophenyl)-pentamethylene)-1,3,4,9-tetrahydro-6-methoxy-pyrano[3,4-b]indole citrate] |  | 41 |
| CSc1ccc(C2(O)CCC3(CC2CN(C)C)OCCc2c3[nH]c3ccccc23)cc1 (stereo not shown) [Example 20, 1,1-(2-(Dimethylaminomethyl)-3-hydroxy-3-(4-methylthiophenyl)-pentamethylene)-1,3,4,9-tetrahydro-pyrano[3,4-b]indole citrate] | 58 |  |
| COc1ccc2[nH]c3c(c2c1)CCNC31CCC(O)(c2cccc(F)c2)C(CN(C)C)C1 (stereo not shown) [Example 21, 1,1-(2-(Dimethylaminomethyl)-3-hydroxy-3-(3-fluorophenyl)-pentamethylene)-3,4-dihydro-6-methoxy-1H-2,9-diazafluorene citrate] | 57 | 44 |
| COc1ccc2[nH]c3c(c2c1)CCNC31CCC(O)(c2ccc(C(F)(F)F)cc2)C(CN(C)C)C1 (stereo not shown) [Example 22, 1,1-(2-(Dimethylaminomethyl)-3-hydroxy-3-(4-trifluoromethylphenyl)-pentamethylene)-3,4-dihydro-6-methoxy-1H-2,9-diazafluorene citrate] | 47 |  |
| CSc1ccc(C2(O)CCC3(CC2CN(C)C)SCCc2c3[nH]c3ccccc23)cc1 (stereo not shown) [Example 23, 1,1-(2-(Dimethylaminomethyl)-3-hydroxy-3-(4-methylthiophenyl)-pentamethylene)-1,3,4,9-tetrahydro-2-thia-9-aza-fluorene sesquicitrate] | 50 |  |
| Cc1ccccc1C1(O)CCC2(CC1CN(C)C)SCCc1c2[nH]c2ccccc12 (stereo not shown) [Example 24, 1,1-(2-(Dimethylaminomethyl)-3-hydroxy-3-(2-methylphenyl)-pentamethylene)-1,3,4,9-tetrahydro-2-thia-9-aza-fluorene citrate] | 75 | 42 |
| CSc1ccc(C2(O)CCC3(CC2CN(C)C)NCCc2c3[nH]c3ccccc23)cc1 (stereo not shown) [Example 26, 1,1-(2-(Dimethylaminomethyl)-3-hydroxy-3-(4-methylthiophenyl)-pentamethylene)-3,4-dihydro-1H-2,9-diazafluorene citrate] |  | 40 |
| CN(C)CC1CC2(CCC1(O)c1ccc(C(F)(F)F)cc1)OCCc1c2sc2ccccc12 (stereo not shown) [Example 29, 1,1-(2-(Dimethylaminomethyl)-3-hydroxy-3-(4-trifluoromethylphenyl)-pentamethylene)-1,3,4,9-tetrahydro-pyrano[3,4-b]benzothiophene citrate] | 47 | 35 |
| CSc1ccc(C2(O)CCC3(CC2CN(C)C)OCCc2c3oc3ccccc23)cc1 (stereo not shown) [Example 30, 1,1-(2-(dimethylaminomethyl)-3-hydroxy-3-(4-methylthiophenyl)-pentamethylene)-1,3,4,9-tetrahydro-pyrano[3,4-b]benzofuran citrate] | 83 | 37 |
| CSc1ccc(C2(O)CCC3(CC2CN(C)C)OCCc2c3sc3ccccc23)cc1 (stereo not shown) [Example 31, 1,1-(2-(dimethylaminomethyl)-3-hydroxy-3-(4-methylthiophenyl)-pentamethylene)-1,3,4,9-tetrahydro-pyrano[3,4-b]benzothiophene citrate] | 82 | 60 |
| CN(C)CC1CC2(CCC1(O)c1ccccc1)NCCc1c2[nH]c2cc(F)ccc12 (stereo not shown) [Example 35, 1,1-(2-(Dimethylaminomethyl)-3-hydroxy-3-phenyl-pentamethylene)-7-fluoro-3,4-dihydro-1H-2,9-diazafluorene dicitrate] | 67 |  |
